US20040203067A1, “Methods for cancer prognosis and screening antiproliferative agents” (Temple University - Of The Commonwealth System of Higher …, priority 1998, published 2004)

Columns and labels:
[1] = system: phospho-STAT-3; experiment: Phospho-STAT-3 immunoassay (Western blot) in BT20 breast cancer cells; assay type: cell-based, human; conditions: 25 μM
Experimental: Human breast carcinoma cell lines, BT20, 126, T47D, MCF-7, ZR75, BT474, 415, and 435 were maintained in Dulbecco's modified eagle medium (DMEM), supplemented with 10% fetal bovine serum (FBS) (complete medium) in a 37° C. incubator with 5% CO2. STAT-3 (C-20) antibody, which recognizes phosphorylated and non-phosphorylated STAT-3, was purchased from Santa Cruz Biotechnologies and utilized as a positive control. Phospho-STAT-3 antibody was purchased from New England Biolabs. Rabbit anti-mouse antibody (secondary antibody for anti-STAT-3 and antiphospho-STAT-3) were purchased from Amersham International.
BT-20 cells were seeded at a density of 2×10^6 cells per 100 mm diameter dish and allowed to grow for 24 hours. Fresh medium was added to each plate 2 hours before treatment with the compound. The compound was dissolved in DMSO to make 5 mM stock solution and added to the medium (10 ml) to obtain a final concentration of 25 μM. DMSO alone was added to the control cells to study the effect of vehicle. […]
Equal amounts total protein ([…]) were run in each lane of SDS-PAGE gel (10%) and transferred to IMMOBILON-P (Millipore, USA). […] The antibody was detected using the ECL Western blotting analysis kit (Amersham International) following the manufacturer's instructions.

[2] = system: BT20 cells; experiment: Killing of BT20 cells determined by Trypan blue exclusion; assay type: cell-based, human; conditions: 2.5 μM in DMSO, within 72 hours of treatment

## O=S(=O)(/C=C/c1ccc(F)cc1)Cc1ccc(Cl)cc1 [FRI-20, E-4-fluorostyryl 4-chlorobenzyl sulfone]
[1]; 48 hours at 37° C., phospho-STAT-3 antibody Western blot (FIG. 9)
  phospho-STAT-3 staining after treatment: complete loss of phospho-STAT-3
[1]; 48 hours, STAT-3 antibody Western blot (FIG. 9)
  STAT-3 staining (STAT-3 expression) after treatment: stained positive for STAT-3
[2]
  BT20 cells killed: more than 95%
